Assay results as given in paper PMC6862662, “In Vitro Evaluation and Docking Studies of 5-oxo-5H-furo[3,2-g]chromene-6-carbaldehyde Derivatives as Potential Anti-Alzheimer’s Agents” (International Journal of Molecular Sciences, 2019).

How the values were obtained:
[1] = DPPH radical scavenging activity assay; conditions: triplicate, preliminary
Procedure: DPPH radical scavenging activity of compounds 2b, 2f, 3b, 3d and 3f was evaluated following the literature method. Ascorbic acid (Sigma Aldrich, Saint Louis, Missouri, USA) was used as a positive control. The test compounds and controls at various concentrations ranging from (0 µM to 40 µM) in DMSO were mixed with a solution of DPPH (0.20 mM) in methanol. The mixtures were incubated in the dark for 45 min and the absorbances were recorded at 512 nm using Varioskan flash microplate spectrophotometer reader. All tests and analyses were run in triplicate and averaged. The inhibition was calculated in terms of percentage using the formula below:(5) DPPH radical scavenged (%)=AbC−AbS/AbC×100, where AbC is absorbance of control and AbS the absorbance of the test sample.

[2] = tested on: lipoxygenase-15 (Soybean LOX-15); assay type: biochemical; conditions: ratio not defined in print; matches IC50 LOX-15/LOX-5
Procedure: Stock solutions (200 µM) of tested samples were prepared in DMSO. The stock solutions were further diluted with 50 mM Tris buffer of pH 7.7 to obtain concentrations of 0.01, 0.1, 1, 10 and 100 µM. The cells of a 96-well plate where distributed as follows: two wells taken as blanks (100 µL 50 mM Tris buffer pH 7.7), two wells taken as positive controls (90 µL of 15-LO Standard and 10 µL of DMSO) and two wells as 100% initial activity wells (90 µL lipoxygenase enzyme solution and 10 µL tris buffer). […] The 96-well plate was then incubated for 5 min at room temperature. The reaction was initiated by the addition of 10 µL of the substrate (arachidonic acid) to each well containing the mixtures. After shaking the 96-well plate on a shaker for 5 min, 100 µL of the chromogen (solution of equal volume developing reagent 1 and 2) was added to each well to stop enzyme catalysis and develop the reaction. The plate was again shaken for 5 min and the absorbance read at 490 nm in a Varioskan flash microplate spectrophotometer reader. The inhibitory concentration was expressed as a percentage using the formula below. […]
ASample is the absorbance of the reaction mixture of the test sample, ABlank sample is the absorbance of the reaction mixture containing all reagents except enzyme and AInitial activity is the absorbance of 100% initial activity.

BChE [3] = molecular target: T1, BChE (Homo sapiens, UniProt P06276); assay: biochemical
T1 construct: purchased cloud-clone corp., purchased through BIOCOM Africa (Pty) Ltd. RPC348Hu0 2_100
Procedure: The mixtures were incubated for 15 min at RT. The reaction was initiated by adding of 10 µL of mixture solution of 5 mM 5,50-dithio-bis-nitrobenzoic acid (DTNB) in 50 mM tris buffer (pH 7.7) and 10 µL acetylthiocholine (ASCh; 5 mM) in 50 mM tris buffer, pH 7.7 into the wells containing the mixtures. The hydrolysis of ASCh was determined by monitoring the formation of the yellow 5-thio-2-nitrobenzoate anion resulting from reaction of DTNB with thiocholines (SCh).
The IC50 values were determined graphically from inhibition curves (inhibitor concentration and absorbance) using the graph pad prism.

human recombinant BACE-1 = molecular target: T2, human recombinant BACE-1 (Homo sapiens, UniProt P56817); assay: β-secretase FRET inhibitory assay; assay type: biochemical; conditions: triplicate
T2 construct: purchased Pan Vera; host or cells: baculovirus-expressed

BChE [4] = molecular target: T1, BChE; assay: Kinetic studies against BChE (Lineweaver–Burk and Dixon plots); assay type: biochemical
Procedure: (§1) Compounds 2f, 2b, 2f, 3b, 3d and 3f were selected for the kinetic studies with substrate concentrations 0.1, 0.5, 2. 5 and 5 µM for ChEs following procedures described in our previous investigation. The Lineweaver–Burk plots (plots of the inverse of velocity (1/v) against the inverse of the substrate concentration (1/[S])) were used to ascertain the mode of inhibition of these compounds.

[5] = tested on: breast cancer cell line MCF-7; assay: MTT cytotoxicity assay, MCF-7; assay type: cell-based; conditions: Homo sapiens, MCF7; MTT assay, 24 h, preliminary; read-out: IC50 against MCF-7 cancer cell line
Procedure: (§2) Briefly, the cells were seeded in 96-well plate at a density of 20 × 10^3 cells per well and then incubated at 37 °C in 5% CO2 to allow cell attachment. […] An equal volume of medium was used as the control treatment. After treatment for 24 h, 10 μL MTT (5 mg/mL) was added to each well and the plate was further incubated for 4 h later. The supernatant was removed and 100 μL of DMSO was added to each well to dissolve the resulting formazan crystals. The absorbance was read at 570 nm using the Varioskan flash microplate spectrophotometer reader. The percentages of cell viability were used to determine the IC50 values.

Hek293-T cells = assay: MTT cytotoxicity assay, Hek293-T; assay type: cell-based; conditions: 24 h, till 50 μM
Procedure: as §2

AChE [6] = molecular target: T3, AChE (Homo sapiens, UniProt P22303); assay: biochemical
T3 construct: purchased BL, purchased through BIOCOM Africa (Pty) Ltd. 768104

AChE [7] = molecular target: T3, AChE; assay: Kinetic studies against AChE (Lineweaver–Burk and Dixon plots); assay type: biochemical
Procedure: as §1

β-secretase (BACE-1) = molecular target: T4, β-secretase (BACE-1) (Homo sapiens, UniProt P56817); assay: Kinetic studies against β-secretase (Lineweaver–Burk and Dixon plots); assay type: biochemical
T4 construct: purchased Pan Vera; host or cells: baculovirus-expressed
Procedure: Compound 2f was selected for the kinetic studies with substrate concentrations 150, 300 and 450 nM for β-secretase following procedure described in our previous investigation. The Lineweaver–Burk plot (plot of the inverse of velocity (1/v) against the inverse of the substrate concentration (1/[S])) was used to ascertain the mode of inhibition of this compound.

[8] = molecular target: T5, human lipoxygenase-5 (LOX-5) (Homo sapiens, UniProt P09917); assay: Human LOX-5 inhibitory assay; assay type: biochemical; conditions: human LOX-5, duplicate
T5 construct: purchased BioVision K980
T5 sequence (P09917 1-674): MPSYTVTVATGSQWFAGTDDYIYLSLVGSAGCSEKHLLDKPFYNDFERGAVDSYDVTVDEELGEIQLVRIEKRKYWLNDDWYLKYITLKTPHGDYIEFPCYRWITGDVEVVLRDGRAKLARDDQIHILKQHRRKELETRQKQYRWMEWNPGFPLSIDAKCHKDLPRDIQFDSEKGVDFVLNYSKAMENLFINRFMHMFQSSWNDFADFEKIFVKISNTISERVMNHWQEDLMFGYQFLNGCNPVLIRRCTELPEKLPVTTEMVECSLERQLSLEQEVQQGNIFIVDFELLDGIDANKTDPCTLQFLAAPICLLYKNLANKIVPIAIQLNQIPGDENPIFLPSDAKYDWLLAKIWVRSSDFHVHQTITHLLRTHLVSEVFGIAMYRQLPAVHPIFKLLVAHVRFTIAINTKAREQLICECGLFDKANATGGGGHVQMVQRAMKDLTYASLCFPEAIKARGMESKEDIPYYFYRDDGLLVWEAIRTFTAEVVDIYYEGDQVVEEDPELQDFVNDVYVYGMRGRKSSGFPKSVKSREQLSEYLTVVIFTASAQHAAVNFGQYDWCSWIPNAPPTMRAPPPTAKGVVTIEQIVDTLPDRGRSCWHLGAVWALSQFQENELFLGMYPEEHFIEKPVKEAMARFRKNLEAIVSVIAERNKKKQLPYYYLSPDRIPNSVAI
Procedure: The reagents were prepared according to the Lipoxygenase inhibitor screening kit (Item No. K980; BioVision, Milpitas Blvd, Milpitas, CA, USA) standard protocol. […] The cells of a 96-well plate where distributed as follows: two wells were taken as blanks (100 µL of assay buffer), two wells enzyme controls (90 µL of 15-LO Standard and 10 µL of tris buffer), two wells as 100% initial activity wells (90 µL and 10 µL DMSO) and three wells as enzyme control (40 µL). […] Forty µL of the reaction mixture (prepared by mixing thoroughly 36 µL of LOX assay buffer, 2 µL of LOX probe and 2 µL of 5-LOX enzyme) were added to each well and incubated for 10 min. at RT. The DMSO concentration in each reaction well was 1% to prevent enzyme structural deformation and therefore, reduced activity. […] The percentage inhibition (%) was calculated using the equation below. (4) % Inhibition=Control−Test/Control×100.

[9] = Lineweaver–Burk and Dixon plots

T3 sequence (P22303 32-614): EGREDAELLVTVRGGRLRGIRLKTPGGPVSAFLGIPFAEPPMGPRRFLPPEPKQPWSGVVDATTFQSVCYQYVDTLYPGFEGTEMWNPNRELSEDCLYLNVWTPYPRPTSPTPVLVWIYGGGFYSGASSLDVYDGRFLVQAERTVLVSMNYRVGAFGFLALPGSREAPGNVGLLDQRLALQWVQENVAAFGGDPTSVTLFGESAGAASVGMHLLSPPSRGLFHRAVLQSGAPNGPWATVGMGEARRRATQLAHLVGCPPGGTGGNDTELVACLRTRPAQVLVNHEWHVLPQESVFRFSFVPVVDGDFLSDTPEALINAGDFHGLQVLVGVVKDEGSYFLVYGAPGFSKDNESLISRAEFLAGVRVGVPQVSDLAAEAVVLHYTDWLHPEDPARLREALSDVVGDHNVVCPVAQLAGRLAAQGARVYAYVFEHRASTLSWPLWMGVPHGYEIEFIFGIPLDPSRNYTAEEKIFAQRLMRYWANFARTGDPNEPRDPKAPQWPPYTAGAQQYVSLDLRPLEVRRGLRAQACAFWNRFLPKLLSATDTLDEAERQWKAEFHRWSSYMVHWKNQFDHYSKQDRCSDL
T1 sequence (P06276 29-602): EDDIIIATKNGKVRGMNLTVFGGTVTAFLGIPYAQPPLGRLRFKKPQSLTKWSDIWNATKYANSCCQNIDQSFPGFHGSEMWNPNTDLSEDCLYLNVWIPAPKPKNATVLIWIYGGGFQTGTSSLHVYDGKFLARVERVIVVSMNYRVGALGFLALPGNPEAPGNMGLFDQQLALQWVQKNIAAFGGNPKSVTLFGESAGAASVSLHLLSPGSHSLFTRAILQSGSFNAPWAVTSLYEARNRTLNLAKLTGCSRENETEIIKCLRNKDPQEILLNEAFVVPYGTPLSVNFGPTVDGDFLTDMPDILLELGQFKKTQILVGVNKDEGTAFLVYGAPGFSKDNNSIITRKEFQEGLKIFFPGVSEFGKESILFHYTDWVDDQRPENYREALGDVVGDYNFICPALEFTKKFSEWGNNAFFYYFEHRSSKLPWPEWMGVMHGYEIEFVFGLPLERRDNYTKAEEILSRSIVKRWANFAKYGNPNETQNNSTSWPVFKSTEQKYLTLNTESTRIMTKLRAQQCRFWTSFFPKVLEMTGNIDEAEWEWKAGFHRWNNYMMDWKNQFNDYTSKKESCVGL
T4 sequence (P56817 46-501): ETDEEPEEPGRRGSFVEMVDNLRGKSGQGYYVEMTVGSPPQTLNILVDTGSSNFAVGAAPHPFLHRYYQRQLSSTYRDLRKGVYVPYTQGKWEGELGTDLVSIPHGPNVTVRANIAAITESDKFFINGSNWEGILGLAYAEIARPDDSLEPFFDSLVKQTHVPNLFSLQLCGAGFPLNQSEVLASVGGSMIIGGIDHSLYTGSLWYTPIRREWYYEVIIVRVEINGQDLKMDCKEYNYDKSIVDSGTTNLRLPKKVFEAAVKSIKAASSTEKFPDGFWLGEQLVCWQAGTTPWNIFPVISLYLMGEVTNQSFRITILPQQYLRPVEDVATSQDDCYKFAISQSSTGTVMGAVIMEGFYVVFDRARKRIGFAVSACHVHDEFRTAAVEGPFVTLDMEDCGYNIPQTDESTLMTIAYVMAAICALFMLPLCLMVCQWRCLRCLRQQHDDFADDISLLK
T2 sequence (P56817 46-501): as above

Structure (SMILES): COc1ccc(-c2cc3cc4c(=O)c(C=O)coc4cc3o2)cc1 [Compound 2f, 2-(4-Methoxyphenyl)-5-oxo-5H-furo[3,2-g]chromene-6-carbaldehyde]
- IC50 [1]: 18.1 ± 0.03 µM
- SI (LOX-15 vs LOX-5) [2]: 0.63
- IC50 (BChE [3]; Ellman's method, triplicate): 5.1 ± 0.02 µM
- SI AChE/BChE (BChE [3]; Selectivity index IC50 (AChE)/IC50 (BChE)): 1.85
- IC50 (human recombinant BACE-1): 15.4 ± 0.02 µM
- Ki (BChE [4]; Dixon plots): 3.9 ± 0.01 µM
- mode of inhibition against BChE (BChE [4]; [9]): non-competitive
- IC50 [5]: 8.65 ± 0.03 µM
- toxicity in Hek293-T cells (Hek293-T cells): did not show any major toxicity
- IC50 (AChE [6]): 9.4 ± 0.01 µM
- SI BChE/AChE (AChE [6]; Selectivity index IC50 (BChE)/IC50 (AChE)): 0.54
- Ki (AChE [7]; Dixon plots): 1.34 ± 0.02 µM
- mode of inhibition against AChE (AChE [7]; [9]): competitive
- Vmax against AChE (AChE [7]; Lineweaver–Burk plots, increasing inhibitor concentration): 0.03 ± 0.018
- Ki (β-secretase (BACE-1); Dixon plot): 1.49 ± 0.01 µM
- mode of inhibition against β-secretase (β-secretase (BACE-1); [9]): mixed mode of inhibition
- IC50 [8]: 15.3 ± 0.01 µM
